Laboratory results published in the supplement of paper PMC12592484.

Legend:
Experiment in all cases: drug sensitivity score (DSS2, normalised partial AUC of dose-response, 72 h CellTiter-Glo viability) (DSS (dimensionless)); higher = more sensitive (stronger growth inhibition / cytotoxicity); extreme values may be limits of the assay
22Rv1 = test system: 22Rv1
Outline: (§1)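 Low-passage primary prostate cancer-associated fibroblasts, PF179T, WPMY-1, LNCaP and 22Rv1 cells were seeded into 384-well plates carrying pre-dispensed compounds at five doses covering a 10,000-fold range. After 72 h, viability was read by CellTiter-Glo 2.0 luminescence. Responses were scaled to vehicle and positive-control wells. The drug sensitivity score (DSS2) is a partial area under the fitted logistic dose–response curve divided by the log of its upper asymptote, computed in BREEZE; higher means more sensitive.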

CAF#1 = test system: CAF#1 (primary prostate cancer-associated fibroblasts of myCAF-like type)
Outline: as §1

CAF#2 = test system: CAF#2 (primary prostate cancer-associated fibroblasts of iCAF-like type)
Outline: as §1

CAF#3 = test system: CAF#3 (primary prostate cancer-associated fibroblasts of myCAF-like type)
Outline: as §1

CAF#4 = test system: CAF#4 (primary prostate cancer-associated fibroblasts of iCAF-like type)
Outline: as §1

CAF#5 = test system: CAF#5 (primary prostate cancer-associated fibroblasts of myCAF-like type)
Outline: as §1

CAF#6 = test system: CAF#6 (primary prostate cancer-associated fibroblasts of iCAF-like type)
Outline: as §1

CAF#7 = test system: CAF#7 (primary prostate cancer-associated fibroblasts of myCAF-like type)
Outline: as §1

LNCAP = test system: LNCAP
Outline: as §1

PF179T = test system: PF179T
Outline: as §1

WPMY-1 = test system: WPMY-1
Outline: as §1

Structure (SMILES)	drug sensitivity score (22Rv1)	drug sensitivity score (CAF#1)	drug sensitivity score (CAF#2)	drug sensitivity score (CAF#3)	drug sensitivity score (CAF#4)	drug sensitivity score (CAF#5)	drug sensitivity score (CAF#6)	drug sensitivity score (CAF#7)	drug sensitivity score (LNCAP)	drug sensitivity score (PF179T)	drug sensitivity score (WPMY-1)
CN(C)C(=N)NC(=N)N [Metformin] (tested concentration range 10-100000 nM)	0	0	0	0	0	0	0	0	0	0	0
CN(Cc1cnc2nc(N)nc(N)c2n1)c1ccc(C(=O)N[C@@H](CCC(=O)O)C(=O)O)cc1 [Methotrexate] (tested concentration range 0.5-5000 nM)	0	0	0	0	1.1	0	0.8	0	16.6	0	17.4
C[C@H]1C[C@@H]2[C@H]([C@@H](O)C[C@@]3(C)[C@H]2CC[C@]3(O)C(=O)CO)[C@@]2(C)C=CC(=O)C=C12 [Methylprednisolone] (tested concentration range 1-10000 nM)	0	0	0	1.9	0	0	0	1.2	0	0	0
CO[C@@H]1[C@H](N(C)C(=O)c2ccccc2)C[C@H]2O[C@]1(C)n1c3ccccc3c3c4c(c5c6ccccc6n2c5c31)C(=O)NC4 [Midostaurin] (tested concentration range 1-10000 nM)	0	18.7	20.7	12.5	16.1	16.5	18.3	19.8	4.2	18.4	11.9
CO[C@@]12[C@H](COC(N)=O)C3=C(C(=O)C(C)=C(N)C3=O)N1C[C@@H]1N[C@@H]12 [Mitomycin C] (tested concentration range 1-10000 nM)	0	0	0.1	0	0	0	0	0	0.7	0	0
Clc1ccc(C(c2ccccc2Cl)C(Cl)Cl)cc1 (stereo not given) [Mitotane] (tested concentration range 1-10000 nM)	0	0	0	0.2	0	0	0	0	1.8	0	0
O=C1c2c(O)ccc(O)c2C(=O)c2c(NCCNCCO)ccc(NCCNCCO)c21 [Mitoxantrone] (tested concentration range 0.1-1000 nM)	10.7	3.7	8.9	1.2	5	6.6	4	7.2	14.7	9.9	15
CCS(=O)(=O)Nc1ccc(Oc2ccc(F)cc2F)c(-c2cn(C)c(=O)c3[nH]ccc23)c1 [Mivebresib] (tested concentration range 1-10000 nM)	23.5	19	19.7	19.3	10.7	15.5	13.3	11.4	30.7	11.1	22.9
Nc1ccccc1NC(=O)c1ccc(CNc2nccc(-c3cccnc3)n2)cc1 [Mocetinostat] (tested concentration range 1-10000 nM)	14.1	9.4	11.3	9.2	8.4	11.8	7.7	9.4	13.3	13.5	12
CCNC(=O)C[C@@H]1N=C(c2ccc(Cl)cc2)c2cc(OC)ccc2-n2c(C)nnc21 [Molibresib] (tested concentration range 1-10000 nM)	8.9	4.6	5.1	6.6	3.8	2.9	2.9	2.7	12.3	2.9	6.5
N#CCNC(=O)c1ccc(-c2ccnc(Nc3ccc(N4CCOCC4)cc3)n2)cc1 [Momelotinib] (tested concentration range 1-10000 nM)	0.9	3.9	4.6	4.4	2.8	4.1	2.8	3.1	5	2.3	6.1
CC1(C)CNc2cc(NC(=O)c3cccnc3NCc3ccncc3)ccc21 [Motesanib] (tested concentration range 1-10000 nM)	0	1.4	2.7	5.9	0.7	2.4	2.1	3.7	5.1	0	0
CCCN(CCC)C(=O)C1=Cc2ccc(-c3ccc(C(=O)N4CCCC4)cc3)cc2N=C(N)C1 [Motolimod] (tested concentration range 1-10000 nM)	1.1	0.4	1	1.7	0	0	1.5	0	3.2	0	0.3
FC(F)(F)c1ccc(/C=C/c2nc(COc3ccc(CCCCn4ccnn4)cc3)co2)cc1 [Mubritinib] (tested concentration range 0.1-1000 nM)	5.8	0	0	0	0	0	0	0	11.7	9.7	12
Cc1cc(OCc2nnc(SC3CCCC3)n2-c2cccnc2)ccc1-c1ccc(S(C)(=O)=O)cc1 [NMS-873] (tested concentration range 1-10000 nM)	12.4	4.8	8.5	8	5.7	5.6	5.9	5.1	18.4	15	14.6
Cc1ccc(C(=O)Nc2cccc(C(F)(F)F)c2)cc1Nc1nc(-c2cccnc2)nc2c1cnn2C [NVP-BHG712] (tested concentration range 1-10000 nM)	5	0	3.2	0	1.6	1	0	0	9.6	0.6	9
CN[C@@H](C)C(=O)N[C@H](C(=O)N1CCC[C@H]1c1nc(C(=O)c2ccc(F)cc2)cs1)C1CCCCC1 [NVP-LCL161] (tested concentration range 2.5-25000 nM)	3.4	0	0.4	1.2	0.3	0	1.9	2	3.7	0	3
CC(=O)c1cc2c(o1)C(=O)c1ccccc1C2=O [Napabucasin] (tested concentration range 2-20000 nM)	17.7	11.2	22.6	16.4	22.4	11.7	16.8	9.5	19.5	21	19.8
CC1(C)CCC(c2ccc(Cl)cc2)=C(CN2CCN(c3ccc(C(=O)NS(=O)(=O)c4ccc(N[C@H](CCN5CCOCC5)CSc5ccccc5)c(S(=O)(=O)C(F)(F)F)c4)cc3)CC2)C1 [Navitoclax] (tested concentration range 1-10000 nM)	0	3	0	0	7.5	2.3	3.1	0.7	7.5	0	0.6
CN1C(=O)N[C@H](Cc2c[nH]c3c(Cl)cccc23)C1=O [Necrostatin 2] (tested concentration range 1-10000 nM)	0	0	0	0	0	0	0	0	0	0	0
O=c1ncn2nc(Sc3ccc(F)cc3F)ccc2c1-c1c(Cl)cccc1Cl [Neflamapimod] (tested concentration range 1-10000 nM)	0.8	0	0	0	0	0	0	0	1.2	0	0
COc1nc(N)nc2c1ncn2[C@@H]1O[C@H](CO)[C@@H](O)[C@@H]1O [Nelarabine] (tested concentration range 1-10000 nM)	0	0	0	0	0	0	0	0	0	0	0
CCOc1cc2ncc(C#N)c(Nc3ccc(OCc4ccccn4)c(Cl)c3)c2cc1NC(=O)/C=C/CN(C)C [Neratinib] (tested concentration range 0.1-1000 nM)	2.4	1.6	2.1	4.6	2.5	0	3.1	4.2	3.6	2.4	2
Cc1cn(-c2cc(NC(=O)c3ccc(C)c(Nc4nccc(-c5cccnc5)n4)c3)cc(C(F)(F)F)c2)cn1 [Nilotinib] (tested concentration range 1-10000 nM)	2.1	0.8	0.8	0	1.7	0.2	0	0	5.3	0	0
CC1(C)NC(=O)N(c2ccc([N+](=O)[O-])c(C(F)(F)F)c2)C1=O [Nilutamide] (tested concentration range 1-10000 nM)	0	0.1	0.1	0	2.7	0	0	0	2.9	0	0
